Measurements as given in patent US5475018A, “1,5-diphenyl pyrazole compounds for treatment of inflammation” (G. D. Searle & Co., priority 1993, dated 1995).

Key:
[1] = Rat Carrageenan Foot Pad Edema Test; assay type: in vivo, Male Sprague-Dawley rats; settings: oral, dosed 1 h before carrageenan, foot volume 3 h after carrageenan, vs placebo
Experimental: (§1) The carrageenan foot edema test was performed with materials, reagents and procedures essentially as described by Winter et al (Proc. Soc. Exp. Biol. Med., 111, 544 (1962)). Male Sprague-Dawley rats were selected in each group so that the average body weight was as close as possible. Rats were fasted with free access to water for over sixteen hours prior to the test. The rats were dosed orally (1 mL) with compounds suspended in vehicle containing 0.5% methylcellulose and 0.025% surfactant, or with vehicle alone. One hour later a subplantar injection of 0.1 mL of 1% solution of carrageenan/sterile 0.9% saline was administered and the volume of the injected foot was measured with a displacement plethysmometer connected to a pressure transducer with a digital indicator. Three hours after the injection of the carrageenan, the volume of the foot was again measured. The average foot swelling in a group of drug-treated animals was compared with that of a group of placebo-treated animals and the percentage inhibition of edema was determined (Otterness and Bliven, Laboratory Models for Testing NSAIDs, in Non-steroidal Anti-Inflammatory Drugs, (J. Lombardino, ed. 1985)).

[2] = Rat Carrageenan-induced Analgesia Test; assay type: in vivo, Male Sprague-Dawley rats; settings: oral, inhibition of hyperalgesic foot withdrawal, 3 h after carrageenan
Experimental: as §1
The analgesia test using rat carrageenan was performed with materials, reagents and procedures essentially as described by Hargreaves et al (Pain, 32, 77 (1988)). […] The time until the rat withdraws its foot was then measured. […]

With `CS(=O)(=O)c1ccc(-n2nc(C(F)(F)F)cc2-c2ccc(F)cc2)cc1` [Example 1, 5-(4-Fluorophenyl)-1-[4-(methylsulfonyl)phenyl]-3-(trifluoromethyl)pyrazole] the “RAT PAW EDEMA % Inhibition @ 10 mg/kg body weight” value [1] was 38% and the “ANALGESIA % Inhibition @ 20 mg/kg body weight” value [2] was 37%.
